The results in this text go back to ChEMBL document CHEMBL5725854, “Inhibitors of protein methyltransferase DOT1L and methods of use thereof” (2018).

The assay concerns the target Histone-lysine N-methyltransferase, H3 lysine-79 specific (Homo sapiens) (UniProt Q8TEK3).

Chain of Histone-lysine N-methyltransferase, H3 lysine-79 specific (Homo sapiens) (Q8TEK3 whole entry, looked up): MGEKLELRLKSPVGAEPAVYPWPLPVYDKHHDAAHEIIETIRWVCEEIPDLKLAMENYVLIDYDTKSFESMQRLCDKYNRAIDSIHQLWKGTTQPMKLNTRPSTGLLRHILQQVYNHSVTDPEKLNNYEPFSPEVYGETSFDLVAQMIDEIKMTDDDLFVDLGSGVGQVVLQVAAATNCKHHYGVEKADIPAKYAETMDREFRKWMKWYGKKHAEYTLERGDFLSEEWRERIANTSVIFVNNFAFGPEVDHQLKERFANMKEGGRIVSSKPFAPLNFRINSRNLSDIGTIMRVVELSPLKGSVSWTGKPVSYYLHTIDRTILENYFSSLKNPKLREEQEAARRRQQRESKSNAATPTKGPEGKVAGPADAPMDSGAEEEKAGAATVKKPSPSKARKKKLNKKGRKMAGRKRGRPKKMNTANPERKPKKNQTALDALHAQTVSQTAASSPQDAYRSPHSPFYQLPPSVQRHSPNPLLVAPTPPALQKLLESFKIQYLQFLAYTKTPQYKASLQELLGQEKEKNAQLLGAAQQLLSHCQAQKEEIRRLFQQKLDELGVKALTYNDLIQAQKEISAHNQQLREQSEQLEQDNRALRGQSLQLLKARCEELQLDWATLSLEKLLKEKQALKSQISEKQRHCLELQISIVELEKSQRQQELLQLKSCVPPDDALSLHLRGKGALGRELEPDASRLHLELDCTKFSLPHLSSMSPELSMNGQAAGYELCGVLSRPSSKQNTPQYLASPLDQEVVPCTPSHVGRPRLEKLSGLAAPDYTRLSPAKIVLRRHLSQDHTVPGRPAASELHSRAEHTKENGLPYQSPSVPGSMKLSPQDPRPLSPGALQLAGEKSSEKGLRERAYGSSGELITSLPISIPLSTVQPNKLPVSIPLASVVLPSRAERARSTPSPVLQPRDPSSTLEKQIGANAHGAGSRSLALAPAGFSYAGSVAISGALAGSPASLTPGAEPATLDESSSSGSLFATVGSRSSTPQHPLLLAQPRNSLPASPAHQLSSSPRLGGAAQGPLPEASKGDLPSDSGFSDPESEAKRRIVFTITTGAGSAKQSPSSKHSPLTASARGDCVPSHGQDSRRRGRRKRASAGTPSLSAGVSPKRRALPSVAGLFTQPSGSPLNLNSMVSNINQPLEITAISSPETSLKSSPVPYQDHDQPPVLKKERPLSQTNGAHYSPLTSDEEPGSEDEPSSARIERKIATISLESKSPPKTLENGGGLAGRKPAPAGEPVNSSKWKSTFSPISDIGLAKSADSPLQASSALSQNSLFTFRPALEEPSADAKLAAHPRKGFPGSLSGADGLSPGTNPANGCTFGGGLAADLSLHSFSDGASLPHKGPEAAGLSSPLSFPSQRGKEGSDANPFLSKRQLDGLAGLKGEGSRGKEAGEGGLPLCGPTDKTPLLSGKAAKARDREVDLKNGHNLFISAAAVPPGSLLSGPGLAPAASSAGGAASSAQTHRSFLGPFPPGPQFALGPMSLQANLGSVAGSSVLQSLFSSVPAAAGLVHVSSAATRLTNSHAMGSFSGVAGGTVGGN

With `Nc1ncnc2c1ncn2[C@@H]1O[C@H](CSCC[C@H](N)OC=O)[C@@H](O)[C@H]1O`, the k off turned out to be 0.1 s⁻¹.
